According to the NIST ThermoML archive (doi:10.1021/je900632q):
Numbers after ± are expanded uncertainties.

Details: 101.3 kPa, Liquid

CCCCn1cc[n+](C)c1.N#CN=C=[N-] [1-butyl-3-methylimidazolium dicyanamide]
Details | mass density [kg/m3] | viscosity [mPa·s]
278.15 K | 1075.8 ± 1.2 | 82.07 ± 2.3
283.15 K | 1072.6 ± 1.2 | 62.54 ± 0.89
288.15 K | 1069.4 ± 1.2 | 48.93 ± 0.71
293.15 K | 1066.2 ± 1.2 | 39.14 ± 0.57
298.15 K | 1063.1 ± 1.2 | 31.8 ± 0.47
303.15 K | 1059.9 ± 1.2 | 26.29 ± 0.39
308.15 K | 1056.8 ± 1.2 | 21.79 ± 0.32
313.15 K | 1053.7 ± 1.2 | 18.5 ± 0.28
318.15 K | 1050.6 ± 1.2 | 15.88 ± 0.24
323.15 K | 1047.5 ± 1.1 | 13.78 ± 0.21
328.15 K | 1044.4 ± 1.1 | 12.06 ± 0.18
333.15 K | 1041.3 ± 1.1 | 10.65 ± 0.16
338.15 K | 1038.2 ± 1.1 | 9.475 ± 0.15
343.15 K | 1035.1 ± 1.1 | 8.485 ± 0.13
348.15 K | 1032.1 ± 1.1 | 7.643 ± 0.12
353.15 K | 1029 ± 1.1 | 6.923 ± 0.11
358.15 K | 1025.8 ± 1.1 | 6.304 ± 0.1
363.15 K | 1022.7 ± 1.1 | 5.77 ± 0.094
